Columns and labels:
PI3K alpha = molecular target: T1, PI3K alpha (Homo sapiens, UniProt P42336); assay: PI3K alpha kinase assay (Kinase-Glo luminescence); type: biochemical
T1 construct: p85(iSH2) fusion partner (see partner chain) (N); His tag (C); made in house; host or cells: baculovirus; Tn5 (Trichoplusia ni) or TiniPro insect cells
Summary of the method: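 PI3K alpha at 10 nM with 1 μM ATP and 10 μg/mL phosphatidylinositol in 10 mM TRIS pH 7.5, 3 mM MgCl2, 50 mM NaCl, 0.05% CHAPS, 1 mM DTT, 60 min at room temperature. Remaining ATP read by Kinase-Glo luminescence. IC50 by 4-parameter fit over 8 concentrations.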

PI3K beta = molecular target: T2, PI3K beta (Homo sapiens, UniProt P42338); assay: PI3K beta kinase assay (Kinase-Glo luminescence); type: biochemical
T2 construct: for the full-length p110-b subunit are generated and fused by overlapping PCR; p85(iSH2) fusion partner (see partner chain) (N); His tag (C); made in house; host or cells: baculovirus; Tn5 (Trichoplusia ni) or TiniPro insect cells
T2 sequence (P42338 with tags, fused parts or gaps limits assumed): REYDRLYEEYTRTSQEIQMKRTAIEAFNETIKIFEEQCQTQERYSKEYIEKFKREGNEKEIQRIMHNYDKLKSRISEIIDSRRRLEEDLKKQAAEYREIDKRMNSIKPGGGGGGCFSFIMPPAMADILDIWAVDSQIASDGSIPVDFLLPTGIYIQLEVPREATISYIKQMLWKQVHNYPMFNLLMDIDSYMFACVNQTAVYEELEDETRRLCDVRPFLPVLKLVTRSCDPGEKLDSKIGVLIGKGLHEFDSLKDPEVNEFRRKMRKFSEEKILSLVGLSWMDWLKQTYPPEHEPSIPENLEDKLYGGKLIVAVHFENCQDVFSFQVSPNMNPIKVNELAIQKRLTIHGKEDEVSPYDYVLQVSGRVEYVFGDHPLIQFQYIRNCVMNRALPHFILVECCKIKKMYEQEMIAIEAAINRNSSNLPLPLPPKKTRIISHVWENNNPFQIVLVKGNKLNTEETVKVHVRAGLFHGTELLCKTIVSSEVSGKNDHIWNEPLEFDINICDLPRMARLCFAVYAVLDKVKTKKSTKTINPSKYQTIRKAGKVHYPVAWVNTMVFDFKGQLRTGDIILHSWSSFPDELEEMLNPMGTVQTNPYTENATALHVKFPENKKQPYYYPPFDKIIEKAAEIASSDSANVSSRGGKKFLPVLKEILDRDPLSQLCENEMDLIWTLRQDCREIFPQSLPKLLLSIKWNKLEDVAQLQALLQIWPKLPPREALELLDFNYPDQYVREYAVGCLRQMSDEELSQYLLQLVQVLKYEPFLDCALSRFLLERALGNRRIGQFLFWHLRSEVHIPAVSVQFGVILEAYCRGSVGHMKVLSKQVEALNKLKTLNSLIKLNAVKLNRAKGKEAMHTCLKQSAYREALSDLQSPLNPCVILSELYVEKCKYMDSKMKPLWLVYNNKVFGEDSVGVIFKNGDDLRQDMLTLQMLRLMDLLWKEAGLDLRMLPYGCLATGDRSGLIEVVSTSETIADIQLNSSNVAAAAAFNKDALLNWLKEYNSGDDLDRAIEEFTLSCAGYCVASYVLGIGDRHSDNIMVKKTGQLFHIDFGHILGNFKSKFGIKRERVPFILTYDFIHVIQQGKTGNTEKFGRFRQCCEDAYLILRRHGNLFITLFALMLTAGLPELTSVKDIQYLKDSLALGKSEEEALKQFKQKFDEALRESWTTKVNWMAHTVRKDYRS
Summary of the method: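 Enzyme: BV949 p85(iSH2)-Gly linker-p110β FL-His, 25 nM. Substrate: PI 10 μg/mL. ATP: 1 μM, added to start. Buffer: Tris pH 7.5 10 mM, MgCl2 3 mM, NaCl 50 mM, CHAPS 0.05%, DTT 1 mM. RT, 60 min. Readout: Kinase-Glo. IC50 by 4-parameter fit.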

PI3K delta = molecular target: T3, PI3K delta (Homo sapiens, UniProt O00329); assay: PI3K delta kinase assay (Kinase-Glo luminescence); type: biochemical
T3 construct: for the full-length p110-d subunit are generated and fused by overlapping PCR; p85(iSH2) fusion partner (see partner chain) (N); His tag (C); made in house; host or cells: baculovirus; Tn5 (Trichoplusia ni) or TiniPro insect cells
T3 sequence (O00329 with tags, fused parts or gaps limits assumed): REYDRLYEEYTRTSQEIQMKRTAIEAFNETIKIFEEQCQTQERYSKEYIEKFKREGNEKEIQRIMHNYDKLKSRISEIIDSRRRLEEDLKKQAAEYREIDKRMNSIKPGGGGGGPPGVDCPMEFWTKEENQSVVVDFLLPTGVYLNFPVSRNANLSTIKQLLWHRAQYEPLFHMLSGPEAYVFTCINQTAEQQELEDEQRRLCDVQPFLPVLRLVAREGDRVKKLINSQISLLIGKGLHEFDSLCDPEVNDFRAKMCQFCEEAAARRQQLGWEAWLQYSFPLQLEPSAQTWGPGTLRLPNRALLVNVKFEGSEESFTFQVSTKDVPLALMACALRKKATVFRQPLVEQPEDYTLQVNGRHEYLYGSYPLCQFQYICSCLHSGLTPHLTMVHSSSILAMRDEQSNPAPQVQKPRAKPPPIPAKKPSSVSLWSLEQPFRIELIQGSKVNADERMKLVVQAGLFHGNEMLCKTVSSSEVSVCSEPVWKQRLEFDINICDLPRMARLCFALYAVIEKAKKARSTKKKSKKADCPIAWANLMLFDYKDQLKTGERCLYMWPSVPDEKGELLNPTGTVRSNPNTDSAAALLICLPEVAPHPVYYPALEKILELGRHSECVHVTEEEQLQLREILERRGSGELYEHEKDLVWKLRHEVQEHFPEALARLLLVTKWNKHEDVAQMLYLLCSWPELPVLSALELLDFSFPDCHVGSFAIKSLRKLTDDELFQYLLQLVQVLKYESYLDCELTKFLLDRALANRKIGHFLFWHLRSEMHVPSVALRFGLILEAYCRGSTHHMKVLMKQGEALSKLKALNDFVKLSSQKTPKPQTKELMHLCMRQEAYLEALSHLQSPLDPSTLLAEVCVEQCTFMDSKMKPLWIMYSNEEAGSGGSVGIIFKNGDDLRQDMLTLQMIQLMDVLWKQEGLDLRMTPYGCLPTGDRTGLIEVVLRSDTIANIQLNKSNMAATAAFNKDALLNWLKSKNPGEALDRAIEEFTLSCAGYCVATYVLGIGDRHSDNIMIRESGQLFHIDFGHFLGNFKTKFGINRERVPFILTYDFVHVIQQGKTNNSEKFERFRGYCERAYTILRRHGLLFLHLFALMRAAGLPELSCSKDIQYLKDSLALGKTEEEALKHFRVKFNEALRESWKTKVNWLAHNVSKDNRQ
Summary of the method: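 Construct BV-1060, p85 iSH2–linker–full-length p110δ, His-tagged, at 10 nM, with 1 μM ATP and 10 μg/mL phosphatidylinositol in pH 7.5 Tris, 3 mM MgCl2, 50 mM NaCl, 0.05% CHAPS. Run 60 min at room temperature; remaining ATP read by Kinase-Glo luminescence; IC50 from 4-parameter logistic fit of 8 concentrations.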

[1] = system: PKB Ser473 phosphorylation in Rat1-myr-HA-p110 alpha cells; assay: Reverse protein array assay, PKB Ser473 phosphorylation in Rat1-myr-p110 alpha cells; type: cell-based; conditions: 0.5 h, pAkt Ser473, 30 minutes compound incubation, read-out: p-PKB IC50
Summary of the method: (§1)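 Measured: PKB Ser473 phosphorylation by reverse protein array in Rat1 cells expressing myr-HA-p110 alpha, beta or delta, after 30 min compound treatment at 37 °C with 0.2% DMSO vehicle.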

[2] = system: PKB Ser473 phosphorylation in Rat1-myr-HA-p110 beta cells; assay: Reverse protein array assay, PKB Ser473 phosphorylation in Rat1-myr-p110 beta cells; type: cell-based; conditions: 0.5 h, pAkt Ser473, 30 minutes incubation, read-out: p-PKB IC50
Summary of the method: as §1

T1 sequence (P42336 with tags, fused parts or gaps limits assumed): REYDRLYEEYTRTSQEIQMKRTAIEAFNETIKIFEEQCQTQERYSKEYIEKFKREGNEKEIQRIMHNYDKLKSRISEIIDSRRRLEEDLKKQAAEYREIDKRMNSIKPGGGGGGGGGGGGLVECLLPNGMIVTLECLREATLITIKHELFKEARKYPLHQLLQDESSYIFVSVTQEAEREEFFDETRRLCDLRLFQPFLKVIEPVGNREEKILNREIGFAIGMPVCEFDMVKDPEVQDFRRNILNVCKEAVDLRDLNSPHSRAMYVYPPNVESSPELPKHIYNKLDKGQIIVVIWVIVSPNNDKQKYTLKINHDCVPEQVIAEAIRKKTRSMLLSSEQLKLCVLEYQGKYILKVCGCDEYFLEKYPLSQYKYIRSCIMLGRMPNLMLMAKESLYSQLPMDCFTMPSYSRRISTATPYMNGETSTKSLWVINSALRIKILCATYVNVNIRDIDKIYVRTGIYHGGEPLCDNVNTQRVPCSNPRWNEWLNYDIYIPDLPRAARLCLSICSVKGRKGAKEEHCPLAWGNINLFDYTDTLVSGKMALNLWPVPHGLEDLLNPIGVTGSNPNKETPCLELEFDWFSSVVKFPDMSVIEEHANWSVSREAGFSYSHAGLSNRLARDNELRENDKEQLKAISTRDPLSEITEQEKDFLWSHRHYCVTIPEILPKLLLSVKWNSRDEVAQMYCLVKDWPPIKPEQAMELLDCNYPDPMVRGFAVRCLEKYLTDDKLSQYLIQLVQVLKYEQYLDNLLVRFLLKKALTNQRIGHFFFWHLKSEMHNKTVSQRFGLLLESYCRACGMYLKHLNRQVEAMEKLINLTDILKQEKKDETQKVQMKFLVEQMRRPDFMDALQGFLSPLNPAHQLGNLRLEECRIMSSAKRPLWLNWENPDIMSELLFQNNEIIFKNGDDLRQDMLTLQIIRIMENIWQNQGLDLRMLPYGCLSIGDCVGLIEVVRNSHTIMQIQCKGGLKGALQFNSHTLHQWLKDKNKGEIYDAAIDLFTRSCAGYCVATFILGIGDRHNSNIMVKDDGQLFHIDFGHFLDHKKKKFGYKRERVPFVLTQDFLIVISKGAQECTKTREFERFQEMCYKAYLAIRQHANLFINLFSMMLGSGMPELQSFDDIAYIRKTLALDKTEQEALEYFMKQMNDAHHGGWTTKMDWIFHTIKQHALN

| SMILES | IC50 (PI3K alpha) [nM] | IC50 (PI3K beta) [nM] | IC50 (PI3K delta) [nM] | IC50 [1] [nM] | IC50 [2] [nM] |
| --- | --- | --- | --- | --- | --- |
| COc1ncc(-c2ccc3ncc4c(c3c2)n(-c2cn(C)nc2C)c(=O)n4C)cc1N(C)C(C)=O [Example 62, N-{5-[1-(1,3-Dimethyl-1H-pyrazol-4-yl)-3-methyl-2-oxo-2,3-dihydro-1H-imidazo[4,5-c]quinolin-8-yl]-2-methoxy-pyridin-3-yl}-N-methyl-acetamide] | 61 | 83 | 16 | 469 | 516 |
| Cc1ncc(-c2ccc3ncc4c(c3c2)n(-c2cn(C)nc2C)c(=O)n4C)cc1N(C)S(C)(=O)=O [Example 75, N-{5-[1-(1,3-Dimethyl-1H-pyrazol-4-yl)-3-methyl-2-oxo-2,3-dihydro-1H-imidazo[4,5-c]quinolin-8-yl]-2-methyl-pyridin-3-yl}-N-methyl-methanesulfonamide] | 14 | 37 | 7 | 206 | 383 |
| CNc1ncc(-c2ccc3ncc4c(c3c2)n(-c2c(C)nn(C)c2C)c(=O)n4C)cn1 [Example 80.2] | 42 | 288 | 25 | 108 | 196 |
| Cc1nn(C)cc1-n1c(=O)n(C)c2cnc3ccc(-c4cnc(N)nc4)cc3c21 [Example 81.1, 8-(2-Amino-pyrimidin-5-yl)-1-(1,3-dimethyl-1H-pyrazol-4-yl)-3-methyl-1,3-dihydro-imidazo[4,5-c]quinolin-2-one] | 75 | 91 | 39 | 13 | 18 |
| COCCOc1cc(-c2ccc3ncc4c(c3c2)n(-c2cn(C)nc2C)c(=O)n4C)cnc1C [Example 86.2, 1-(1,3-Dimethyl-1H-pyrazol-4-yl)-8-[5-(2-methoxy-ethoxy)-6-methyl-pyridin-3-yl]-3-methyl-1,3-dihydro-imidazo[4,5-c]quinolin-2-one] | 9 | 21 | 6 | 33 | 53 |
| CCNc1cc(-c2ccc3ncc4c(c3c2)n(-c2cn(C)nc2C)c(=O)n4C)cnc1C [Example 87.1, 1-(1,3-Dimethyl-1H-pyrazol-4-yl)-8-(5-ethylamino-6-methyl-pyridin-3-yl)-3-methyl-1,3-dihydro-imidazo[4,5-c]quinolin-2-one] | 14 | 21 | 10 | < 5 | < 5 |
| CCNc1cc(-c2ccc3ncc4c(c3c2)n(-c2c(C)nn(CCOC)c2C)c(=O)n4C)cnc1C [Example 87.4, 8-(5-Ethylamino-6-methyl-pyridin-3-yl)-1-[1-(2-methoxy-ethyl)-3,5-dimethyl-1H-pyrazol-4-yl]-3-methyl-1,3-dihydro-imidazo[4,5-c]quinolin-2-one] | 42 | 93 | 17 | 33 | 85 |
| Cc1ncc(-c2ccc3ncc4c(c3c2)n(-c2cn(C)nc2C)c(=O)n4C)cc1N [Example 88.2, 8-(5-Amino-6-methyl-pyridin-3-yl)-1-(1,3-dimethyl-1H-pyrazol-4-yl)-3-methyl-1,3-dihydro-imidazo[4,5-c]quinolin-2-one] | 17 | 68 | 8 | 24 | 28 |
| CCNc1cc(-c2ccc3ncc4c(c3c2)n(-c2cn(C)nc2Cl)c(=O)n4C)cnc1OC [Example 90.1, 1-(3-Chloro-1-methyl-1H-pyrazol-4-yl)-8-(5-ethylamino-6-methoxy-pyridin-3-yl)-3-methyl-1,3-dihydro-imidazo[4,5-c]quinolin-2-one] | 43 | 39 | 31 | < 5 | < 5 |
| Cc1nn(C)cc1-n1c(=O)n(C)c2cnc3ccc(-c4ccc(N5CCN(C)CC5)nc4)cc3c21 [Example 96, 1-(1,3-Dimethyl-1H-pyrazol-4-yl)-3-methyl-8-[6-(4-methyl-piperazin-1-yl)-pyridin-3-yl]-1,3-dihydro-imidazo[4,5-c]quinolin-2-one] | 47 | 544 | 199 | 12 | 37 |
| COc1ccc(-c2ccc3ncc4c(c3c2)n(-c2cn(CC(=O)N(C)C)nc2C)c(=O)n4C)cn1 [Example 102, 2-{4-[8-(6-Methoxy-pyridin-3-yl)-3-methyl-2-oxo-2,3-dihydro-imidazo[4,5-c]quinolin-1-yl]-3-methyl-pyrazol-1-yl}-N,N-dimethyl-acetamide] | 13 | 291 | 26 | 33 | 34 |
| Cc1nn(C(C)C)cc1-n1c(=O)n(C)c2cnc3ccc(-c4ccc(C(N)=O)nc4)cc3c21 [Example 112, 5-[1-(1-Isopropyl-3-methyl-1H-pyrazol-4-yl)-3-methyl-2-oxo-2,3-dihydro-1H-imidazo[4,5-c]quinolin-8-yl]-pyridine-2-carboxylic acid amide] | 79 | 391 | 209 | 24 | 73 |
| Cc1nn(C)cc1-n1c(=O)n(C)c2cnc3ccc(-c4cccc(N(C)S(C)(=O)=O)c4)cc3c21 [Example 117, N-{3-[1-(1,3-Dimethyl-1H-pyrazol-4-yl)-3-methyl-2-oxo-2,3-dihydro-1H-imidazo[4,5-c]quinolin-8-yl]-phenyl}-N-methyl-methanesulfonamide] | 58 | 907 | 147 | 282 | 659 |
| CNc1ccc(-c2ccc3ncc4c(c3c2)n(-c2cn(C(C)C)nc2C)c(=O)n4C)cn1 [Example 118.1, 1-(1-isopropyl-3-methyl-1H-pyrazol-4-yl)-3-methyl-8-(6-methylamino-pyridin-3-yl)-1,3-dihydro-imidazo[4,5-c]quinolin-2-one] | 26 | 302 | 18 | 8 | 14 |
| CNc1ccc(-c2ccc3ncc4c(c3c2)n(-c2cn(CC(=O)N(C)C)nc2C)c(=O)n4C)cn1 [Example 118.3, N,N-Dimethyl-2-{3-methyl-4-[3-methyl-8-(6-methylamino-pyridin-3-yl)-2-oxo-2,3-dihydro-imidazo[4,5-c]quinolin-1-yl]-pyrazol-1-yl}-acetamide] | 16 | 695 | 84 | 107 | 43 |
| CNc1ccc(-c2ccc3ncc4c(c3c2)n(-c2cn(C)nc2Cl)c(=O)n4C)cn1 [Example 118.5, 1-(3-Chloro-1-methyl-1H-pyrazol-4-yl)-3-methyl-8-(6-methylamino-pyridin-3-yl)-1,3-dihydro-imidazo[4,5-c]quinolin-2-one] | 9 | 41 | 5 | < 5 | < 5 |
| CCNc1cncc(-c2ccc3ncc4c(c3c2)n(-c2cn(C)nc2C)c(=O)n4C)c1 [Example 122, 1-(1,3-Dimethyl-1H-pyrazol-4-yl)-8-(5-ethylamino-pyridin-3-yl)-3-methyl-1,3-dihydro-imidazo[4,5-c]quinolin-2-one] | 14 | 22 | 14 | < 5 | 22 |

— patent US20140005163A1 (NOVARTIS AG, priority 2010, published 2014)
